In assay [1] the target is T1, NLRP3 inflammasome (Homo sapiens, UniProt Q96P20). As to the kind of experiment: NLRP3 inflammasome assay, IL-1β ELISA in LPS- and ATP-treated THP-1 cells. Particulars: 50 ng/mL LPS + 5 mM ATP, compared to the LPS+ATP group, MCC950 1 uM, RS-D7 0.1-5 uM, others 0.2-5 uM, FIG. 2A. In general terms: ELISA stands for enzyme-linked immunosorbent assay.
Method: (§3) The assays were conducted using Human promonocytic leukemia THP-1 cells.
(§4) Human promonocytic leukemia THP-1 cells were cultured in RPMI and treated with Phorbol 12-myristate 13-acetate (PMA). […] The supernatant of PMA-differentiated THP-1 cells was collected at given time points after stimulation, and IL-1β level in cell culture supernatant was determined using IL-1 beta Human Uncoated ELISA Kit (Invitrogen). Supernatants and cell lysate were also evaluated by immunoblotting methods. The immunoreactive signals were developed using Immobilon Crescendo Western HRP substrate and the digitized image of the membrane was detected by ImageQuant LAS 4000mini (GE) according to the manufacturer's instructions.
Assay [2] deals with T1, NLRP3 inflammasome. As to the kind of experiment: NLRP3 inflammasome assay, IL-1β ELISA in LPS- and MSU-treated THP-1 cells. Particulars: 50 ng/mL LPS + 400 ug/ml MSU, compared to the LPS+MSU group, RS-D7 0.1-5 uM, others 0.2-5 uM, FIG. 2B.
Method: as §3, §4
Assay [3] has as its target T1, NLRP3 inflammasome. The experiment in a line: NLRP3 inflammasome assay, western blot (immunoblotting) of LPS+MSU-treated PMA-primed THP-1 cells. The settings on record: MCC950 1 uM, RS-D7 0.1, 1 and 5 uM, FIG. 1. For orientation: In western blotting, separated proteins are transferred to a membrane and probed.
Method: as §3, §4
Another assay has as its system IL-1β. The experiment in a line: Inflammation cytokine ELISA in the cerebellum of TgM83 mice: IL-1β. The format is in vivo, mouse. Particulars: 30 mg/kg oral gavage, sacrificed after 20 minutes, P<0.05, FIG. 5A. The text has this:
(§1) To characterize the inflammatory response after RS-D7 treatment, the level of inflammation cytokines, including interleukin-1 beta (IL-1β), interleukin-6 (IL-6), and Tumor Necrosis Factor-α (TNF-α), were examined in the cerebellum of male TgM83 and WT littermate mice (n=5 each) using enzyme-linked immunosorbent assay (ELISA). All the animals were sacrificed after 20-minutes RS-D7 treatment and the tissue samples were taken from […] of the mouse brain from male WT littermates, TgM83 mice and TgM83 mice with RS-D7 treatment (30 mg/kg, P.O.). These samples were dissected on ice and then stored at −80° C. before use. The ELISA experiment was performed using commercial kits for IL-1β (88-7013, Invitrogen, USA), IL-6 (88-7064, Invitrogen, USA) and TNF-α (88-7324, Invitrogen, USA). Procedures were followed according to manufactures protocols. Standards and samples were run in triplicates. OD values were read at 450 nm using a microplate reader (ThermoFisher Scientific, USA). Calculation of concentrations were done according to manufactures protocol using standard curve methods.
(§2) All of the data are presented as the mean+SE of the mean (SEM). The data was analyzed with one-way ANOVA in behavioral results. A post-hoc analysis was performed with Fisher's LSD test when F values reaching significant difference. […]

The subject of another assay is TNF-α. The experiment in a line: Inflammation cytokine ELISA in the cerebellum of TgM83 mice: TNF-α. In kind it is in vivo, mouse. Particulars: 30 mg/kg oral gavage, sacrificed after 20 minutes, P<0.05, FIG. 5C.
Source text: as §1, §2

In assay [4] the test system is TgM83 mice. The experiment in a line: Rotarod task (motor coordination) in TgM83 mouse model. In kind it is in vivo. In general terms: Falling from the rotarod earlier than controls is read as motor impairment.
Assay [5] deals with TgM83 mice. As to the kind of experiment: Open field task (locomotion activity) in TgM83 mouse model. The format is in vivo.
The next assay deals with IL-6. As to the kind of experiment: Inflammation cytokine ELISA in the cerebellum of TgM83 mice: IL-6. Particulars: 30 mg/kg oral gavage, sacrificed after 20 minutes, P<0.05, FIG. 5B. In kind it is in vivo, mouse.
Source text: as §1, §2

Structures are written as SMILES.

T1 sequence (Q96P20 whole entry): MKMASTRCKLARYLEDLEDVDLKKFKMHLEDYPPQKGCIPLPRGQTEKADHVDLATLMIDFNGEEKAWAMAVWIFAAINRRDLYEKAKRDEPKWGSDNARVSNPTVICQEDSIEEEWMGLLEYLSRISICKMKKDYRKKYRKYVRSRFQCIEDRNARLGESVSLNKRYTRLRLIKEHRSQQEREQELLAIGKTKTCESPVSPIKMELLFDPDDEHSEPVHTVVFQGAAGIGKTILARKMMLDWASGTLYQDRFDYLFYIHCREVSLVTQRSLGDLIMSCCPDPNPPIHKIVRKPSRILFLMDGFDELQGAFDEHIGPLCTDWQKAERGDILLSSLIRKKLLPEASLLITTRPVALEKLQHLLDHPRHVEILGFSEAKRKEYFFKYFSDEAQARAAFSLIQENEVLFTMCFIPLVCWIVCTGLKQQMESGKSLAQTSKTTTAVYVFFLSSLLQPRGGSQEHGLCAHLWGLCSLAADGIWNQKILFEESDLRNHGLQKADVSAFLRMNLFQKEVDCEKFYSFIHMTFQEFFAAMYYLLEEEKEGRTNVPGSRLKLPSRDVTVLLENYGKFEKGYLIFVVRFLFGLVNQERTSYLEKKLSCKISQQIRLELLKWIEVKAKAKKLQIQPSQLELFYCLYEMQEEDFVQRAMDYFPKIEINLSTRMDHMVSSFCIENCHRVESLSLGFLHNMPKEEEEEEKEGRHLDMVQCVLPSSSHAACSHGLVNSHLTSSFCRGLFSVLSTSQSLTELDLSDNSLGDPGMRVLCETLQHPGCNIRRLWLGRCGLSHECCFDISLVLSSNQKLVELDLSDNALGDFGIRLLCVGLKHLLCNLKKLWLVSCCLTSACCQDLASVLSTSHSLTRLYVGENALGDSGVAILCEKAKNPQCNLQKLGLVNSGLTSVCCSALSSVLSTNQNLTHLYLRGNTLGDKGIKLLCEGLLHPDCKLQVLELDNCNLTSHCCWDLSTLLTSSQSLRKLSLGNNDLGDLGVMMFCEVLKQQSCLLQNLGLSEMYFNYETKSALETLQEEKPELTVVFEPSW

Regarding `COc1c(C)cnc(CSc2nc3cc(C(=O)O)ccc3n2CCC2=CCCCC2)c1C` [compound 12083, 1-(2-(cyclohex-1-en-1-yl)ethyl)-2-(((4-methoxy-3,5-dimethylpyridin-2-yl)methyl)thio)-1H-benzo[d]imidazole-5-carboxylic acid], the “IL-1β level in cell culture supernatant (ELISA)” value on NLRP3 inflammasome [1] and at NLRP3 inflammasome [2] was “significantly lower levels” throughout.
Take `COc1c(C)cnc(C[S+]([O-])c2nc3ccc(O)cc3[nH]2)c1C` (stereo not drawn) [RS-D7, 5-O-Desmethyl-Omeprazole]: on NLRP3 inflammasome [3], the “expression of IL-1β (western blot)” value is on record as “dose-dependent inhibition” and the “expression of caspase-1 (western blot)” value is listed as “dose-dependent inhibition”. Besides, the “IL-1β level in the cerebellum (ELISA)” value in the assay with IL-1β is on record as “significantly inhibit the overexpression”. Besides, the “TNF-α level in the cerebellum (ELISA)” value in the assay with TNF-α is on record as “significantly inhibit the overexpression”. The “IL-1β level in cell culture supernatant (ELISA)” value at NLRP3 inflammasome [1] is on record as “significantly lower levels”. Also, the “prolonging of the falling latency versus TgM83 vehicle mice” value in the assay on TgM83 mice [4] (30 mg/kg oral gavage, P<0.05) was 76.8 s. In the assay with TgM83 mice [4] (single dose 30 mg/kg PO, accelerating 4-40 rpm, mean±sem, TgM83 vehicle 55.3±10.4, WT 99.5±7.5), the “falling latency on the rotarod” value is 132.1 ± 16.1 s. The “IL-1β level in cell culture supernatant (ELISA)” value on NLRP3 inflammasome [2] is “significantly lower levels”. For the same compound, the “increase of distance moved versus TgM83 vehicle mice (rescue of hypolocomotion)” value with TgM83 mice [5] (30 mg/kg oral gavage, one hour, P<0.05) is 5,007 cm. In addition, in the assay with TgM83 mice [5] (12-month-old, single dose 30 mg/kg PO, 1-hour period, mean±sem, TgM83 vehicle 15,472±942, WT 21,552±1,269), the “total distance moved in the open field test” value was 20,479±730 cm. The “IL-6 level in the cerebellum (ELISA)” value with IL-6 is reported as “significantly inhibit the overexpression”.
`COc1c(C)cnc(CSc2nc3cc(OC(=O)CNC(=O)OC(C)(C)C)ccc3[nH]2)c1C` [compound 12093, 2-(((4-methoxy-3,5-dimethylpyridin-2-yl)methyl)thio)-1H-benzo[d]imidazol-5-yl (tert-butoxycarbonyl)glycinate]: the “IL-1β level in cell culture supernatant (ELISA)” value on NLRP3 inflammasome [1] and at NLRP3 inflammasome [2] was “significantly lower levels” in each case.
